How the values were obtained:
Assay type in all cases: functional
Setaria viridis = assay: Herbicidal activity against green foxtail (Setaria viridis L. Beauv.) as the dose required for 50% control
Echinochloa crus-galli = assay: Herbicidal activity against barnyard grass (Echinochloa crusgalli L. Beauv.) as the dose required for 50% control
Panicum virgatum = assay: Herbicidal activity against Switch grass (Panicum virgatum L.) as the dose required for 50% control

| Compound | -Log ED50 (Setaria viridis) | -Log ED50 (Echinochloa crus-galli) | -Log ED50 (Panicum virgatum) |
| --- | --- | --- | --- |
| CC(C)c1ccc(CS(=O)(=O)c2cccc[n+]2[O-])cc1 | -0.1 M acre-1 | -0.1 M acre-1 | 0.62 M acre-1 |
| CC(c1ccc(Cl)cc1)S(=O)(=O)c1cccc[n+]1[O-] (centres undefined) | 0.82 M acre-1 | 0.9 M acre-1 | 1.14 M acre-1 |
| CC(c1ccc(S(C)(=O)=O)cc1)S(=O)(=O)c1cccc[n+]1[O-] (centres undefined) | -0.43 M acre-1 | -0.43 M acre-1 | -0.35 M acre-1 |
| O=S(=O)(Cc1cccc(Br)c1)c1cccc[n+]1[O-] | -0.14 M acre-1 | 0.16 M acre-1 | 0.03 M acre-1 |
| N#Cc1ccccc1CS(=O)(=O)c1cccc[n+]1[O-] | -0.01 M acre-1 | 0.18 M acre-1 | -0.22 M acre-1 |
| Cc1ccc(C)c(CS(=O)(=O)c2cccc[n+]2[O-])c1 | 0.39 M acre-1 | 1.09 M acre-1 | 0.99 M acre-1 |
| CC(C)c1ccc(C(C)C)c(CS(=O)(=O)c2cccc[n+]2[O-])c1 | -0.02 M acre-1 | -0.02 M acre-1 | -0.02 M acre-1 |
| Cc1ccc(C(C)S(=O)(=O)c2cccc[n+]2[O-])cc1C (centres undefined) | 1.07 M acre-1 | 1.31 M acre-1 | 1.24 M acre-1 |
| O=S(=O)(Cc1ccccc1Cl)c1cccc[n+]1[O-] | 0.43 M acre-1 | 0.85 M acre-1 | 0.4 M acre-1 |
| CC(c1cc(Cl)ccc1Cl)S(=O)(=O)c1cccc[n+]1[O-] (centres undefined) | 0.86 M acre-1 | 1.07 M acre-1 | 1.07 M acre-1 |
| CC(C)c1ccc(C(C)C)c(C(C)S(=O)(=O)c2cccc[n+]2[O-])c1 (centres undefined) | 0.19 M acre-1 | 0.78 M acre-1 | 0.19 M acre-1 |
| COc1ccc(C)cc1CS(=O)(=O)c1cccc[n+]1[O-] | 0.41 M acre-1 | 1.02 M acre-1 | 0.73 M acre-1 |
| CC(c1ccc([N+](=O)[O-])cc1)S(=O)(=O)c1cccc[n+]1[O-] (centres undefined) | 0.23 M acre-1 | 0.43 M acre-1 | 0.43 M acre-1 |
| Cc1ccc(Cl)c(C(C)S(=O)(=O)c2cccc[n+]2[O-])c1 (centres undefined) | 0.66 M acre-1 | 1.35 M acre-1 | 0.82 M acre-1 |
| O=S(=O)(Cc1ccccc1)c1cccc[n+]1[O-] | 0.14 M acre-1 | 0.29 M acre-1 | 0.04 M acre-1 |
| Cc1ccc(C(F)(F)F)cc1C(C)S(=O)(=O)c1cccc[n+]1[O-] (centres undefined) | 1.09 M acre-1 | 0.79 M acre-1 | 1.09 M acre-1 |
| O=S(=O)(Cc1ccccc1Oc1ccccc1)c1cccc[n+]1[O-] | -0.03 M acre-1 | -0.12 M acre-1 | 0.11 M acre-1 |
| CC(c1cccc(Cl)c1F)S(=O)(=O)c1cccc[n+]1[O-] (centres undefined) | 1.05 M acre-1 | 1.36 M acre-1 | 1.24 M acre-1 |
| COc1ccc(CS(=O)(=O)c2cccc[n+]2[O-])cc1OC | -0.01 M acre-1 | 0.13 M acre-1 | 0.23 M acre-1 |

| Compound | -Log ED50 (Setaria viridis) | -Log ED50 (Echinochloa crus-galli) | -Log ED50 (Panicum virgatum) |
| --- | --- | --- | --- |
| CC(c1c(F)cccc1Cl)S(=O)(=O)c1cccc[n+]1[O-] (centres undefined) | 1.35 M acre-1 | 1.35 M acre-1 | 1.65 M acre-1 |
| CC(c1cc(C(F)(F)F)ccc1Cl)S(=O)(=O)c1cccc[n+]1[O-] (centres undefined) | 0.63 M acre-1 | 0.91 M acre-1 | 1.26 M acre-1 |
| O=S(=O)(Cc1c(Cl)cccc1Cl)c1cccc[n+]1[O-] | 0.74 M acre-1 | 0.96 M acre-1 | 0.74 M acre-1 |
| CC(c1cc(F)ccc1F)S(=O)(=O)c1cccc[n+]1[O-] (centres undefined) | 1.17 M acre-1 | 1.22 M acre-1 | 1.22 M acre-1 |
| O=S(=O)(Cc1ccccc1F)c1cccc[n+]1[O-] | 0.07 M acre-1 | 0.37 M acre-1 | 0.77 M acre-1 |
| Cc1cc(Cl)ccc1C(C)S(=O)(=O)c1cccc[n+]1[O-] (centres undefined) | 0.79 M acre-1 | 0.84 M acre-1 | 0.98 M acre-1 |
| O=S(=O)(Cc1ccccc1I)c1cccc[n+]1[O-] | 0.22 M acre-1 | 0.52 M acre-1 | 0.32 M acre-1 |
| COc1ccc(Br)c(CS(=O)(=O)c2cccc[n+]2[O-])c1 | 0.5 M acre-1 | 0.6 M acre-1 | 0.95 M acre-1 |
| Cc1ccc(C(C)C)cc1C(C)S(=O)(=O)c1cccc[n+]1[O-] (centres undefined) | 0.57 M acre-1 | 0.89 M acre-1 | 0.7 M acre-1 |
| Cc1ccc(C)c(CS(=O)(=O)c2cccc[n+]2[O-])c1C | 0.7 M acre-1 | 0.7 M acre-1 | 0.7 M acre-1 |
| O=S(=O)(Cc1c(Cl)ccc(Cl)c1Cl)c1cccc[n+]1[O-] | 0.49 M acre-1 | 0.81 M acre-1 | 0.81 M acre-1 |
| CC(c1cccc(C(F)(F)F)c1)S(=O)(=O)c1cccc[n+]1[O-] (centres undefined) | 0.77 M acre-1 | 0.46 M acre-1 | 1.37 M acre-1 |
| CCCCOc1cccc(CS(=O)(=O)c2cccc[n+]2[O-])c1 | -0.15 M acre-1 | 0.15 M acre-1 | -0.15 M acre-1 |
| COc1cc(CS(=O)(=O)c2cccc[n+]2[O-])cc(OC)c1OC | -0.79 M acre-1 | -0.77 M acre-1 | -0.77 M acre-1 |
| O=S(=O)(Cc1ccc(-c2ccccc2)cc1)c1cccc[n+]1[O-] | -0.54 M acre-1 | -0.69 M acre-1 | -0.19 M acre-1 |
| Cc1ccccc1C(C)S(=O)(=O)c1cccc[n+]1[O-] (centres undefined) | 1.29 M acre-1 | 1.58 M acre-1 | 1.29 M acre-1 |
| Cc1c(Cl)ccc(C(C)S(=O)(=O)c2cccc[n+]2[O-])c1Cl (centres undefined) | 0.89 M acre-1 | 0.68 M acre-1 | 1 M acre-1 |
| Cc1ccc(C)c(C(C)S(=O)(=O)c2cccc[n+]2[O-])c1 (centres undefined) | 1.25 M acre-1 | 1.3 M acre-1 | 1.25 M acre-1 |
| CCc1ccc(CC)c(C(C)S(=O)(=O)c2cccc[n+]2[O-])c1 (centres undefined) | 1.05 M acre-1 | 1.15 M acre-1 | 1.15 M acre-1 |

From ChEMBL document CHEMBL1122355, “Quantitative structure-activity relationships for 2-[(phenylmethyl)sulfonyl]pyridine 1-oxide herbicides” (1983)
